According to patent US11447482B1, “Imidazopyridine and oxazolopyridine derivatives and analogs thereof, methods of preparation thereof, methods of HIF-2A pathway inhibition, and induction of ferroptosis” (KUDA Therapeutics, Inc., priority 2019, dated 2022):
Where “and” joins values, the source holds several entries; their conditions need not be identical. Equal entries are not always repeated. Where two headings read alike, the source gives them in different places.

Columns and labels:
HIF-2α = assay: Western blot of treated 786-0 cells: HIF-2α; format: cell-based, human; conditions: 786-0 CCRCC cells, 24 hours
Experimental: (§1) Western blots were performed to determine the effects of the compounds on levels of HIF-2α and other relevant proteins. 786-0 (pVHL deficient clear cell kidney cancer cells) were purchased from ATCC were plated at 1×10E5 cells/well in 2 ml DMEM with 10% FBS/well in 6-well tissue culture plates. Cells were allowed to adhere overnight in a humidified incubator at 37° C. with 5% CO2, after which the appropriate concentrations of compounds in DMSO were added. DMSO concentrations were kept constant in all wells. After 24 hour's exposure to the compounds, cells were lysed and subjected to western blotting according to standard protocols (Polek, Talpaz et al. 2003). Antibodies for HIF-2α and Glyceraldehyde 3-Phosphate Dehydrogenase (GAPDH) were purchased from Cell Signaling Technology (Danvers, Mass.), whereas antibodies to iron responsive element binding protein 2 (IRP2) and Glutathione Peroxidase 4 (GPX4) were from Santa Cruz Biotechnology (Dallas, Tex.) and R&D Systems, Inc (Minneapolis, Minn.). Representative data in FIG. 3 show a dose-dependent effect of compounds in decreasing HIF-2α. Compounds also impact cellular iron sensing given by increased IRP2, which taken together indicate that cells sense decreased amounts of available iron. Representative data shown in FIG. 5 Part C show a dose dependent effect of the compounds on GPX4, which may indicate decreased resistance to ferroptosis.

IRP2 = assay: Western blot of treated 786-0 cells: IRP2; format: cell-based, human; conditions: 786-0 CCRCC cells, 24 hours
Experimental: as §1

[1] = test system: HIF-2α transcriptional activity; assay: Hypoxia-responsive element-driven luciferase (HRE-Luc) assay; format: cell-based, human; conditions: 786-0 CCRCC cells stably expressing HRE-Luc, 24 hours treatment
Experimental: (§2) Screens for inhibitory activity of compounds described herein were performed using 786-0 CCRCC cells that stably express HRE-Luc: 5 copies of the hypoxia-responsive element (HRE) fused to the pGL3 luciferase reporter (Promega Corp, Madison Wis.). 786-0 cells are pVHL deficient and thus constitutively express HIF-2α independently of cellular oxygen tension (Maxwell, Wiesener et al. 1999). Since 786-0 cells lack HIF-1α, HRE-driven luciferase activity is primarily HIF-2α driven, and has been previously validated (Koh, Lemos et al. 2011). Cells were maintained at log phase growth in Dulbecco's […] (DMEM) with 10% FBS in a humidified incubator at 37° C. with 5% CO2. For screening assays, cells were seeded at a density of 4,000 cells in 50 μl of complete media/well in quadruplicate wells/point in a 96-well plate. 24 hours later, 50 μl of a 2× concentration of test compound was added to each well. Compounds were diluted from a 5-10 mM stock in DMSO and final concentrations of DMSO in each well in controls and treated wells were kept constant at ≤0.6% DMSO. After 24 hours' treatment, luciferase activity was measured using the Steady-Glo Luciferase assay system (Promega Corp) according to the manufacturer's protocol. Cell viability was measured in quadruplicate parallel wells using resazurin as recommended by the manufacturer (R&D systems, Minneapolis, Minn.). Data for luciferase and resazurin were normalized to DMSO treated controls (defining 100%) and wells containing assay reagent but no cells (defining 0%), and graphed using the log inhibitor versus normalized response option in Prism7 Graphpad software. Representative data determined using Steady-Glo luciferase and resazurin are shown in FIGS. 1A and 1B respectively, with error bars showing standard error of the mean (SEM).

recombinant ISCA2 = target: T1, recombinant ISCA2 (Homo sapiens, UniProt Q86U28); assay: Thermal shift assay (SYPRO Orange); format: binding
T1 construct: His6 (N); made in house
T1 sequence (Q86U28 9-154): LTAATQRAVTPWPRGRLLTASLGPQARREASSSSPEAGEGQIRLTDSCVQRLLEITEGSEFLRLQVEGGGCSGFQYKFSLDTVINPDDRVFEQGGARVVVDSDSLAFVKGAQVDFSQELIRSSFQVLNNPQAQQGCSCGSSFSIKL
Experimental: Thermal shift assays were performed by monitoring the change in protein melting temperature (Tm) in the absence or presence of test compounds, using the hydrophobic protein binding dye, SYPRO Orange (S6650, Thermo Fisher Scientific, Waltham, Mass.), measured using the LightCycler 480 (Roche Life Sciences, Indianapolis, Ind.) according to the manufacturer's protocol. Recombinant ISCA2 was produced by expressing amino acid residues 9-154 of ISCA2 (ISCA2 lacking its mitochondrial localization sequence) in the pET28 vector containing an N-terminal His6 tag in Rosetta (DE3) competent cells (Novagen, Millipore Sigma). ISCA2 production was induced by treating ISCA2 transformed log phase cells with 0.25 mM IPTG for 4 hours at 18° C. ISCA2 was purified using Ni^2+ affinity purification according to standard protocols and eluted in 50 mM Tris-Cl pH7.4, 150 mM NaCl, 5 mM DTT. Thermal shift assays were performed in 384-well plates using 1 μl of a 10× concentration of SYPRO Orange, 8 μl of ISCA2 (4 μg protein) and 1 μl of 1-2 mM stock of test compound per well. The LightCycler was used according to the following setup: LightCycler 480 Instrument Temperature Setup: First target of 20° C., with a Hold of 15 seconds; second target of 95° C., with Acquisition Mode of Continuous, and 10 acquisitions per degree C.; and third target of 20° C., with a Hold of 15 seconds. Tms were determined using Roche Protein Melting Analysis Software. Representative data are shown in FIGS. 7 and 8 using KD001 at 200 μM final concentration and KD025 at 100 μM final concentration respectively. Part A in these figures show the changes in fluorescence with increasing temperature in control (grey traces), or treated (black traces) wells. Part B show the ratio of changes in fluorescence (dF) with changes in temperature (dT), given by dF/dT, the peak of which indicates the melting temperature of ISCA2 under these assay conditions. In these examples, for KD001 in FIG. 7, the average Tm readings for control wells was 53.21±0.36° C. (replicate readings were 53.92, 52.83, 52.90), whereas Tm readings for KD001-treated wells were 55.63±0.26° C. (replicate readings were 55.10, 55.92, 55.96). Thus, treatment with KD001 results in a change in melting temperature of ISCA2 (dTm) of 2.41±0.44° C., with a Student's t-test p-value of 0.005. For KD025 in FIG. 8, the average Tm readings for control wells was 55.02±0.2° C. (replicate readings were 55.42, 54.83, 54.81), whereas Tm readings for KD025-treated wells were 56.3±0.02° C. (replicate readings were 56.33, 56.3, 56.27). Thus, treatment with KD025 results in a change in melting temperature of ISCA2 (dTm) of […], with a Student's t-test p-value of 0.003.

[2] = test system: CMV-driven luciferase in 786-0 cells; assay: CMV-Luciferase counter-screen (constitutive luciferase); format: cell-based, human; conditions: 786-0 CMV versus 786-0 HRE cells, data of FIG. 2
Experimental: Since it is possible that non-specific inhibitors of luciferase activity and/or translation may produce false-positives in our HRE-luciferase screens, counter-screens were performed using 786-0 cells that stably express a constitutively expressed luciferase construct. 786-0 cells stably expressing CMV-driven luciferase were generated using the pGL4.50 (luc2/CMV/Hygro) vector (Promega Corp) according to the manufacturers' protocol. 786-0 HRE and 786-0 CMV were seeded in 96-well plates and were screened according to the HRE-Luc assay protocol described in Example 2. Luciferase activity following compound treatment was determined using Steady Glo luciferase. Representative data are shown in FIG. 2, wherein A, B and C refer to treatments with KD02, KD007 and KD021 respectively. Filled circles indicate results from 786-0 HRE cells, whereas empty squares indicate results from 786-0 CMV cells.

786-0 CCRCC cells [3] = assay: Resazurin cell viability assay, with or without deferoxamine; format: cell-based, human; conditions: 24 hours; for ratio of resazurin IC50 to HRE-Luc IC50: 786-0 HRE-Luc cells, data of FIG. 1; for IC50: 786-0 CCRCC cells, resazurin
Experimental: as §2
In view of the increased cellular iron concentrations induced by the compounds described herein, the involvement of iron in mediating cell death was determined. Cell viability assays were performed as described in Example 2 using resazurin as a cell viability readout, and performed in the absence or presence of 100 μM of the iron chelator, deferoxamine (D9533, MilliporeSigma, St Louis, Mo.). […] The data support an iron-dependent mechanism of cell death, or feroptosis.

786-0 CCRCC cells [4] = assay: ICP-MS of cellular iron, zinc and copper; format: cell-based, human; conditions: 786-0 cells, 24 hours, 1.5 μM KD002 or KD021, 2.5 μM KD025HCl, versus DMSO
Experimental: These studies were performed to determine the content of iron and other transition metals in cells after exposure the compounds described herein. 786-0 cells were seeded at 1.5 million cells/flask in T75 cm^2 flasks in DMEM+10% FBS, and allowed to adhere overnight. Cells were then treated with indicated concentrations of compounds in DMSO or DMSO alone (vehicle) for a further 24 hours, after which cells were detached by trypsinization, counted, washed twice in PBS and pelleted. Experiments were performed using three replicate T75 cm^2 flasks per condition. A 5:1 mixture of nitric acid (OPTIMA Grade, 70%, Fisher Scientific) and ultrapure hydrogen peroxide (ULTREX II, 30%, Fisher Scientific) was added to cell pellets. This mixture was allowed to digest overnight, heated until dry, and resuspended in 2% nitric acid for analysis using an Agilent 7900 ICP-MS (Agilent Technologies, Santa Clara, Calif.). Calibration standard solutions for determination of Fe were prepared from Agilent multi-element calibration standard-2A. An Agilent Environmental Calibration Standard was used as an independent control. PBS-only control digestions were used to measure background. Metal readings were normalized to cell number. Data obtained from these studies for three replicate readings (with SEM) are shown in FIG. 4, which show an increase in cellular iron (Fe) content after treatment with indicated compounds.

Row | Compound | IC50 ([1]; Homo sapiens) [µM] | ratio of resazurin IC50 to HRE-Luc IC50 (786-0 CCRCC cells [3]) | HIF-2α protein relative to GAPDH (western blot) (HIF-2α) | IRP2 protein relative to GAPDH (western blot) (IRP2) | ratio of CMV-Luc IC50 to HRE-Luc IC50 [2] | cellular copper (Cu) content (ICP-MS) (786-0 CCRCC cells [4]) | cellular iron (Fe) content (ICP-MS) (786-0 CCRCC cells [4]) | cellular zinc (Zn) content (ICP-MS) (786-0 CCRCC cells [4]) | other results
1 | COc1cccc2sc(Nc3nnc(-c4ccc(F)cc4)o3)nc12 [KD001, 5-(4-fluorophenyl)-N-(4-methoxybenzo[d]thiazol-2-yl)-1,3,4-oxadiazol-2-amine] | 3.21 |  | decreases | increases |  |  |  |  | Tm of ISCA2 in treated wells, replicate readings (recombinant ISCA2; 200 μM compound): 55.10 °C and 55.92 °C and 55.96 °C; change in melting temperature of ISCA2 (dTm) (recombinant ISCA2; 200 μM compound, p-value 0.005): 2.41±0.44 °C; ΔTm at 200 µM (recombinant ISCA2; 200 μM compound, p-value 0.005, read-out: change in melting temperature of ISCA2 (dTm)): 2.41 ± 0.44 °C; Tm of ISCA2 in treated wells (average) (recombinant ISCA2; 200 μM compound, control wells 53.21±0.36): 55.63±0.26 °C
2 | COc1nccc2[nH]c(Nc3nnc(-c4ccc(F)cc4)o3)nc12 [KD002, 5-(4-Fluorophenyl)-N-(4-methoxy-1H-imidazo[4,5-c]pyridin-2-yl)-1,3,4-oxadiazol-2-amine] | 1.56 | 39.05 | decreases | increases | 7.9 | increases | increases | increases | 
3 | Fc1ccc(-c2nnc(Nc3nc4ncccc4o3)o2)cc1 [KD007, N-(5-(4-Fluorophenyl)-1,3,4-oxadiazol-2-yl)oxazolo[4,5-b]pyridin-2-amine] | 3.16 | 3.2 |  |  | 4.75 and 2.6 |  |  |  | 

Continued, in another order:

Row | IC50 ([1]; Homo sapiens) [µM] | ratio of resazurin IC50 to HRE-Luc IC50 (786-0 CCRCC cells [3]) | Compound | HIF-2α protein relative to GAPDH (western blot) (HIF-2α) | IRP2 protein relative to GAPDH (western blot) (IRP2) | ratio of CMV-Luc IC50 to HRE-Luc IC50 [2] | cellular copper (Cu) content (ICP-MS) (786-0 CCRCC cells [4]) | cellular iron (Fe) content (ICP-MS) (786-0 CCRCC cells [4]) | cellular zinc (Zn) content (ICP-MS) (786-0 CCRCC cells [4]) | other results
4 |  | 2.75 | COc1ccc(-c2nnc(Nc3nc4c(OC)nccc4[nH]3)o2)cc1 [KD021, N-(4-methoxy-1H-imidazo[4,5-c]75yridine-2-yl)-5-(4-methoxyphenyl)-1,3,4-oxadiazol-2-amine] |  |  |  | increases | increases | increases | IC50 (786-0 CCRCC cells [3]; with 100 μM deferoxamine (DFO), read-out: cell viability IC50 in the presence of DFO): 83.6 µM; IC50 (786-0 CCRCC cells [3]; without DFO, read-out: cell viability IC50): 11.4 µM; IC50 [1]: 1.4 µM
5 | 1.13 |  | COc1ccc(-c2nnc(Nc3nc4c(OC)nccc4[nH]3)o2)cc1OC [KD025, N-(4-Methoxy-1H-imidazo[4,5-c]pyridin-2-yl)-5-(3,4-dimethoxyphenyl)-1,3,4-oxadiazol-2-amine] |  |  |  |  |  |  | Tm of ISCA2 in treated wells, replicate readings (recombinant ISCA2; 100 μM compound): 56.33 °C and 56.3 °C and 56.27 °C; change in melting temperature of ISCA2 (dTm) (recombinant ISCA2; 100 μM compound, p-value 0.003): 1.21±0.20 °C; ΔTm at 100 µM (recombinant ISCA2; 100 μM compound, p-value 0.003, read-out: change in melting temperature of ISCA2 (dTm)): 1.21 ± 0.2 °C; Tm of ISCA2 in treated wells (average) (recombinant ISCA2; 100 μM compound, control wells 55.02±0.2): 56.3±0.02 °C
